Source: patent US10478425B2, “5-phenylazaindole derivative having AMPK-activating activity” (Shionogi & Co., Ltd., priority 2016, dated 2019)
Values joined by “and” are separate entries in the source; they are usually repeats but may differ in a detail not shown here. Equal values may be shown once. Read-outs that look alike come from different tables or passages of the source.

Molecular target: T1, Human AMPK α2β2γ1 (Homo sapiens, UniProt O43741+P54646)
T1 construct: The full length cDNAs of human AMPK β2 (NM_005399.3) and human AMPK α2 (NM_006252.3); The full length cDNAs of human AMPK β2 (NM_005399.3); the full length cDNA of human AMPK γ1 (NM_002733.3) had been inserted into pET28b(+); 6×His (N); made in house; host or cells: Escherichia coli BL21 CodonPlus (DE3)-RIL
T1 sequence (P54646 whole entry): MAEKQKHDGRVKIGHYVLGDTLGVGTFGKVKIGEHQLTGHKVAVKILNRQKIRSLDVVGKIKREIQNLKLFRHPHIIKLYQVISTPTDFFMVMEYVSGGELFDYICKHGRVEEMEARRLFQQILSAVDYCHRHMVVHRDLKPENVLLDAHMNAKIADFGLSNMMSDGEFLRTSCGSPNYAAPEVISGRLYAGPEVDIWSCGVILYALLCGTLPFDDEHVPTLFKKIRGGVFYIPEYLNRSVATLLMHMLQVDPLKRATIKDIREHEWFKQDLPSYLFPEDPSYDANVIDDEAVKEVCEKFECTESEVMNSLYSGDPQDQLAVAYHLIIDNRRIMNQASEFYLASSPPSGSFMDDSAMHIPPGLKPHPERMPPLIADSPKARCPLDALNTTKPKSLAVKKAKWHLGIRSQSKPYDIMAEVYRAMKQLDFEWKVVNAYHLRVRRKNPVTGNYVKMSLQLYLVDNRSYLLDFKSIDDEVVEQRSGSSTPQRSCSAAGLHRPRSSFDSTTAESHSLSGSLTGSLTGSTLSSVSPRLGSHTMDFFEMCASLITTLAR
T1 sequence (O43741 whole entry): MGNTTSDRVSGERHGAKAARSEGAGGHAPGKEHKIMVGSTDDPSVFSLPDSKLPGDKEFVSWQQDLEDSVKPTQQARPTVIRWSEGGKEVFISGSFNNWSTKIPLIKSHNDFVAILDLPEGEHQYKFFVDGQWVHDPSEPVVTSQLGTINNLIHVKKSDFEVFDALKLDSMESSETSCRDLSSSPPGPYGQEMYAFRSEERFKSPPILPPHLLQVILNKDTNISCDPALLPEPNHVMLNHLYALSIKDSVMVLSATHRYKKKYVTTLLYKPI
T1 sequence (P54619 whole entry partner): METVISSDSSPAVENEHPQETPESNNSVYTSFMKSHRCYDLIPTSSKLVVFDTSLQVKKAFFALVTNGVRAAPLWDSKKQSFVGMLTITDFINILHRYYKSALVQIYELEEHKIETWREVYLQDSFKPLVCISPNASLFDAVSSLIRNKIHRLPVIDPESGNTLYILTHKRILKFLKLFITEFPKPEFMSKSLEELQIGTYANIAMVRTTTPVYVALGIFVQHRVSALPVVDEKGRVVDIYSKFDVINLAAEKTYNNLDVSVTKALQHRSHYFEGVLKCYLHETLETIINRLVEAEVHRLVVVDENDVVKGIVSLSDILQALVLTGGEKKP
Test: Test Example 2: activation of phosphorylated human AMPK α2β2γ1 (mobility-shift kinase assay, FL-Peptide 7)
Type: biochemical
Settings: for EC150: compound concentration showing 150% relative to the control (100%), human AMPK α2β2γ1 phosphorylated with CaMKK2; for Emax: maximum rate of increase in activity within the measurement range, control = 100%
Procedure: The full length cDNAs of human AMPK β2 (NM_005399.3) and human AMPK α2 (NM_006252.3) were inserted into the MCS1 and MCS2 of the pETDuet-1 vector to prepare a human AMPK β2 and human AMPK α2 (6×His tag at the 5′ terminus) expressing plasmid. The plasmid was cotransfected with an expression plasmid, in which the full length cDNA of human AMPK γ1 (NM_002733.3) had been inserted into pET28b(+), into BL21 CodonPlus (DE3)-RIL to obtain an expression strain. The expression strain was cultured in TB medium, followed by induction with 0.5 mM IPTG, and cultured at 25° C. for 3 hours and then harvested. After ultrasonication, supernatant was collected and applied to Histrap FF column (GE) and RESOUECE Q column (GE) to prepare 12.5 mg of purified sample containing three types of subunit from 1.8 L of broth.
An expression vector, in which the full length cDNA of human CAMKK β (NM_172226.1) had been inserted into pGEX-6P-3, was transfected into BL21 Star (DE3). The expression strain was cultured in TB medium, followed by induction with 0.5 mM IPTG, and cultured at 25° C. for 3 hours and then harvested. After ultrasonication, supernatant was collected and applied to GSTrap FF column (GE) to prepare 14 mg of GST-fused CAMKK β from 720 ml of broth.
Thus, phosphorylation treatment was carried out as pretreatment.
Human AMPK α2β2γ1 in an amount to give a conversion rate of approximately 10% by reaction for 2 hours, and CaMKK2 in an amount capable of sufficiently imparting activity to AMPK for one hour were mixed in a buffer solution consisting of a 50 mM HEPES-NaOH buffer solution (pH 7.0), 100 mM NaCl, 5 mM magnesium chloride, 0.1% bovine serum albumin, 0.2 mM sodium orthovanadate(V), 1 mM ethylene glycol-bis(2-aminoethyl ether)-N,N,N′,N′-tetraacetic acid (EGTA), 5 mM disodium β-glycerophosphate, 1 mM dithiothreitol and 0.2 mM ATP, and the resulting liquid was left to stand at 25° C. for 1 to 1.5 hours to sufficiently phosphorylate AMPK.
After that, to the enzyme liquid, which had been subjected to phosphorylation treatment, a compound dissolved in DMSO was added so as to have a 1% DMSO concentration. The resulting liquid was left to stand for 10 minutes.
To the liquid, a substrate solution consisting of a 50 mM HEPES-NaOH buffer solution (pH 7.0), 100 mM NaCl, 10 mM magnesium chloride, 0.1% bovine serum albumin, 0.2 mM sodium orthovanadate(V), 1 mM ethylene glycol-bis(2-aminoethyl ether)-N,N,N′,N′-tetraacetic acid (EGTA), 5 mM disodium β-glycerophosphate, 2 mM dithiothreitol, 0.4 mM ATP and 3 μM FL-Peptide 7 (manufactured by Caliper Life Sciences, Inc.) was added in equal amount (10 μl in total). The resulting liquid was allowed to react at 25° C. for 2 hours, then 10 μl of 20 mM EDTA was added thereto to stop the reaction.
To detect phosphorylated fluorescent substrates, the reaction mixture was applied to a measuring device, LabChip EZ Reader II manufactured by Caliper Life Science, Inc., for detecting fluorescence by using differences in mobility due to differences in charge. The setting conditions for the device were pressure, −1.5 PSI; upstream voltage, −2250 V; downstream voltage, −400 V; post sample buffer sip time, 40 seconds; final delay, 120 seconds; and peak order, Product First.
A conversion rate was calculated from the peak heights of the obtained substrate and product. The conversion rate when not containing a compound was used as a control, and a concentration dependent curve was made by plotting the rate of increase in activity to the control at each concentration of a compound.

Row | Compound | EC150 [nM] | Emax (read-out: Emax) [%] | Emax
1 | C[S+]([O-])c1ccc(-c2ccc(-c3nc4cc(O[C@@H]5CO[C@H](CO)C5)[nH]c4cc3F)cc2)cc1 (single isomer, unassigned) [Compound I-2-06] | 0.46 | 621 | –
2 | C[S+]([O-])c1ccc(-c2ccc(-c3nc4cc(O[C@@H]5CO[C@H](CO)C5)[nH]c4cc3F)cc2)cc1 (single isomer, unassigned) [Compound I-2-07] | 0.68 | – | 638%
3 | C[S+]([O-])c1ccc(-c2ccc(-c3nc4cc(O[C@@H]5CO[C@H]6[C@@H]5OC[C@H]6O)[nH]c4cc3F)cc2)cc1 (single isomer, unassigned) [Compound I-2-08] | 1.6 | 598 | –
4 | C[S+]([O-])c1ccc(-c2ccc(-c3nc4cc(O[C@@H]5CO[C@H]6[C@@H]5OC[C@H]6O)[nH]c4cc3F)cc2)cc1 (single isomer, unassigned) [Compound I-2-09] | 1.9 | – | 598%
5 | CS(C)(=O)=Nc1ccc(-c2ccc(-c3nc4cc(O[C@H]5CCOC5)[nH]c4cc3Cl)cc2)cc1 [Compound I-1-01] | 24 | 282 | –
6 | COC(=O)NC1CCN(c2ccc(-c3nc4cc(O[C@@H]5CO[C@H](CO)C5)[nH]c4cc3F)cc2)CC1 [Compound I-1-03] | 9.8 | 556 | –
7 | CS(C)(=O)=Nc1ccc(-c2ccc(-c3nc4cc(O[C@H]5CO[C@H](CO)[C@@H](O)C5)[nH]c4cc3F)cc2)cc1 [Compound I-1-04] | 6.2 | 332 | –
8 | CS(C)(=O)=Nc1ccc(-c2ccc(-c3nc4cc(O[C@@H]5CC[C@@H](CO)OC5)[nH]c4cc3F)cc2)cc1 [Compound I-1-06] | 19 | 263 | –
9 | CO[C@@H]1CO[C@H]2[C@@H]1OC[C@H]2Oc1cc2nc(-c3ccc(-c4ccc(N=S(C)(C)=O)cc4)cc3)c(F)cc2[nH]1 [Compound I-1-07] | 15 | 189 | –
10 | CNC(=O)Nc1ccc(-c2ccc(-c3nc4cc(O[C@@H]5CO[C@H]6[C@@H]5OC[C@H]6O)[nH]c4cc3F)cc2)cc1 [Compound I-1-08] | 4.7 | 444 | –
11 | O=C(c1ccc(-c2ccc(-c3nc4cc(O[C@@H]5CO[C@H]6[C@@H]5OC[C@H]6O)[nH]c4cc3F)cc2)cc1)N1CCCC1 [Compound I-1-09] | 4.8 | 475 | –
12 | CCOC(=O)NC1CCN(c2ccc(-c3nc4cc(O[C@@H]5CO[C@H]6[C@@H]5OC[C@H]6O)[nH]c4cc3F)cc2)CC1 [Compound I-1-10] | 13 | 490 | –
13 | CCC(=O)NC1CCN(c2ccc(-c3nc4cc(O[C@@H]5CO[C@H]6[C@@H]5OC[C@H]6O)[nH]c4cc3F)cc2)CC1 [Compound I-1-12] | – | – | 497% and 523%
14 | CCOC(=O)N[C@H]1CC[C@H](c2ccc(-c3nc4cc(O[C@@H]5CO[C@H]6[C@@H]5OC[C@H]6O)[nH]c4cc3F)cc2)CC1 [Compound I-1-14] | 24 | 513 | –
15 | O[C@@H]1CO[C@H]2[C@@H]1OC[C@H]2Oc1cc2nc(-c3ccc(-c4ccc(C5=NCCO5)cc4)cc3)c(F)cc2[nH]1 [Compound I-1-15] | 0.58 | 525 | –
16 | CS(=O)(=O)NC1CC=C(c2ccc(-c3nc4cc(O[C@@H]5CO[C@H]6[C@@H]5OC[C@H]6O)[nH]c4cc3F)cc2)CC1 (stereo partly drawn) [Compound I-1-17] | 3.4 | 483 | –

Row | Compound | EC150 [nM] | Emax (read-out: Emax) [%] | Emax
17 | C[S@](=O)(=Nc1ccc(-c2ccc(-c3nc4cc(O[C@@H]5CO[C@H]6[C@@H]5OC[C@H]6O)[nH]c4cc3F)cc2)cc1)c1ccccc1 [Compound I-1-18] | 19 | 415 | –
18 | C[S@@](=O)(=Nc1ccc(-c2ccc(-c3nc4cc(O[C@@H]5CO[C@H]6[C@@H]5OC[C@H]6O)[nH]c4cc3F)cc2)cc1)c1ccccc1 [Compound I-1-19] | 5.8 | 477 | –
19 | COc1cc(-c2ccc(N=S3(=O)CCCC3)cc2)ccc1-c1nc2cc(O[C@@H]3CO[C@H]4[C@@H]3OC[C@H]4O)[nH]c2cc1F [Compound I-1-20] | 8.3 | 457 | –
20 | COC(=O)NC1CC=C(c2ccc(-c3nc4cc(O[C@@H]5CO[C@H]6[C@@H]5OC[C@H]6O)[nH]c4cc3F)cc2)CC1 (stereo partly drawn) [Compound I-1-22] | 3.8 | 422 | –
21 | COC(=O)NC1CC=C(c2ccc(-c3nc4cc(O[C@@H]5CO[C@H]6[C@@H]5OC[C@H]6O)[nH]c4cc3F)cc2)CC1 (stereo partly drawn) [Compound I-1-23] | 2.9 | – | 436%
22 | CN1CCC(Oc2ccc(-c3ccc(-c4nc5cc(O[C@@H]6CO[C@H]7[C@@H]6OC[C@H]7O)[nH]c5cc4F)cc3)cc2)C1 (stereo partly drawn) [Compound I-1-26] | 1.5 | 353 | –
23 | O[C@@H]1CO[C@H]2[C@@H]1OC[C@H]2Oc1cc2nc(-c3ccc(-c4ccc(OC5COC5)cc4)cc3)c(F)cc2[nH]1 [Compound I-1-28] | 15 | 596 | –
24 | CS(C)(=O)=Nc1ccc(-c2ccc(-c3nc4cc(O[C@@H]5CO[C@H]6[C@@H]5OC[C@H]6O)[nH]c4cc3Cl)cc2)cc1 [Compound I-1-30] | 1.7 | 500 | –
25 | CC(=O)NC1CCN(c2ccc(-c3nc4cc(O[C@@H]5CO[C@H]6[C@@H]5OC[C@H]6O)[nH]c4cc3F)cc2)CC1 [Compound I-1-31] | 9.5 | 539 | –
26 | CNS(=O)(=O)c1ccc(-c2ccc(-c3nc4cc(O[C@@H]5CO[C@H]6[C@@H]5OC[C@H]6O)[nH]c4cc3F)cc2)nc1 [Compound I-1-32] | 8 | 456 | –
27 | CN(C)S(=O)(=O)c1ccc(-c2ccc(-c3nc4cc(O[C@@H]5CO[C@H]6[C@@H]5OC[C@H]6O)[nH]c4cc3F)cc2)nc1 [Compound I-1-33] | 6.5 | 464 | –
28 | CC(C)OC(=O)NC1CCN(c2ccc(-c3nc4cc(O[C@@H]5CO[C@H]6[C@@H]5OC[C@H]6O)[nH]c4cc3F)cc2)CC1 [Compound I-1-34] | 8.6 | 518 | –
29 | CC(=O)Nc1ccc(-c2ccc(-c3nc4cc(O[C@@H]5CO[C@H]6[C@@H]5OC[C@H]6O)[nH]c4cc3F)cc2)cc1 [Compound I-1-35] | 5.9 | 432 | –
30 | CC(=O)N(C)c1ccc(-c2ccc(-c3nc4cc(O[C@@H]5CO[C@H]6[C@@H]5OC[C@H]6O)[nH]c4cc3F)cc2)cc1 [Compound I-1-36] | 1.7 | 437 | –
31 | O=C1CCCN1c1ccc(-c2ccc(-c3nc4cc(O[C@@H]5CO[C@H]6[C@@H]5OC[C@H]6O)[nH]c4cc3F)cc2)cc1 [Compound I-1-37] | 6.5 | 405 | –
32 | O[C@@H]1CO[C@H]2[C@@H]1OC[C@H]2Oc1cc2nc(-c3ccc(-c4ccc(C5=NCCN5)cc4)cc3)c(F)cc2[nH]1 [Compound I-1-38] | 0.99 | 470 | –
